# Where “and” joins values, the source holds several entries; their conditions need not be identical. Equal values may be shown once. Read-outs that look alike come from different tables or passages of the source. Starred links: 1 amine or outer side, 2 acyl side, 3 side chain; linkers in the order of their positions; H or OH if unused. Positions of bridges follow the written chain, without caps; N, C: chain ends. Non-standard residues stand in square brackets, D forms with d. Residues, ends and D or L forms follow the SMILES beside them. *: point of attachment. pTerphenylCO(4''-OnC5H11) = CCCCCOc1ccc(-c2ccc(-c3ccc(C(=O)*)cc3)cc2)cc1; Orn(4R-OH,5R-OH) = O=C([C@H](C[C@@H](O)[C@@H](O)N[*:3])N[*:1])[*:2]; hTyr(3S-OH,4S-OH) = N[C@H](C(=O)O)[C@H](O)[C@@H](O)c1ccc(O)cc1; Pro(3S-OH,4S-Me) = C[C@H]1CN[C@H](C(=O)O)[C@H]1O; Hyp = O=C(O)[C@@H]1C[C@@H](O)CN1
# What was measured:
# C. albicans NRRL Y-477 [1] = type: cell-based, Candida albicans
# Procedure: (§1) Spontaneous mutant selection. […] Three individual colonies from each strain were used to start cultures in RPMI. […] One milliliter aliquots were spread onto SDA plates containing drug with sterile glass beads. Starting viable count was enumerated by triplicate plating of serial dilutions of the starting inoculum. […] Glycerol stocks of putative mutant colonies were stored at −80° C. […] Spontaneous mutation frequencies were calculated by dividing the number of resistant colonies on a given plate by the starting inoculum plated. A subset of mutants (weighted heavily towards those selected with CMP1) were then evaluated by MIC and sequencing of FKS gene hot spot regions.
# [2] = system: C. glabrata ATCC 90030, ATCC 2001; type: cell-based, Candida glabrata; settings: for Freq. (replicate mutation frequency): replicate plates 1-3; for Plate concentration: SDA, minimum concentration to cleanly inhibit growth
# Procedure: as §1
# C. parapsilosis CP02 [3] = type: cell-based, Candida parapsilosis
# Procedure: as §1
# C. krusei ATCC 6258 [4] = type: cell-based, Candida krusei
# Procedure: as §1
# C. albicans NRRL Y-477 [5] = assay: microbe, parasite or virus in culture; type: cell-based, Candida albicans; settings: for MIC: Candida albicans
# [6] = system: C. glabrata ATCC 90030, ATCC 2001; assay: microbe, parasite or virus in culture; type: cell-based, Candida glabrata; settings: for MIC fold-shift: WT to P20; for MIC: Nakaseomyces glabratus
# C. parapsilosis CP02 [7] = assay: microbe, parasite or virus in culture; type: cell-based, Candida parapsilosis; settings: for MIC: Lodderomyces parapsilosis
# [8] = system: C. glabrata vaginal isolates; assay: Susceptibility testing of VVC clinical isolates at pH 7 and 4 (CLSI M27-A3); type: cell-based, Candida glabrata; settings: Nakaseomyces glabratus
# [9] = system: C. parapsilosis vaginal isolates; assay: as above; type: cell-based, Candida parapsilosis
# [10] = system: C. tropicalis vaginal isolates; assay: as above; type: cell-based; settings: Candida tropicalis
# Candida albicans = assay: Broth microdilution of invasive fungal isolates (CLSI M27-A3/M38-A2); type: cell-based
# Candida parapsilosis = assay: as above; type: cell-based
# Candida tropicalis = assay: as above; type: cell-based
# Candida orthopsilosis = assay: as above; type: cell-based
# [11] = system: Cryptococcus neoformans var. grubii; assay: as above; type: cell-based
# Aspergillus fumigatus = assay: Broth microdilution of invasive fungal isolates (CLSI M27-A3/M38-A2), MEC; type: cell-based; settings: 56 isolates
# C. albicans NRRL Y-477 [12] = assay: Broth microdilution MIC (CLSI), Examples 3 and 4; settings: Candida albicans
# Procedure: Antifungal susceptibility testing. […] MIC assays were performed in triplicate.
# C. krusei ATCC 6258 [13] = assay: Broth microdilution MIC (CLSI), Examples 3 and 4; settings: Pichia kudriavzevii, ATCC6258, 24 h, read-out: Broth MIC
# Procedure: Antifungal susceptibility testing. Candida strains were cultured aerobically at 35° C. on SDA plates or in RPMI 1640 broth (pH 7.0). […] MIC assays were performed in triplicate.
# [14] = SDA, minimum concentration to cleanly inhibit growth
smiles,measurement,setting,value
"CCCCCOc1ccc(-c2ccc(-c3ccc(C(=O)N[C@H]4C[C@@H](O)[C@@H](O)NC(=O)[C@@H]5[C@@H](O)[C@@H](C)CN5C(=O)[C@H]([C@@H](C)O)NC(=O)[C@H]([C@H](O)[C@@H](O)c5ccc(O)cc5)NC(=O)[C@@H]5C[C@@H](O)CN5C(=O)[C@H]([C@@H](C)O)NC4=O)cc3)cc2)cc1 [ANID, anidulafungin] ({pTerphenylCO(4''-OnC5H11)}-[Orn(4R-OH,5R-OH)]T[Hyp][hTyr(3S-OH,4S-OH)]T[Pro(3S-OH,4S-Me)]; lactam 1-C)",Median mutation frequency,C. albicans NRRL Y-477 [1],1.59E−07
same,Plate concentration,C. albicans NRRL Y-477 [1]; [14],0.015 µg/mL
same,Freq. (replicate mutation frequency),C. albicans NRRL Y-477 [1]; replicate plates 1-3,1.88E−07 and 1.59E−07 and 1.56E−07
same,Median mutation frequency,[2]; ATCC 2001,7.02E−08
same,Freq. (replicate mutation frequency),[2]; ATCC 2001,7.02E−08 and 6.71E−08 and 1.09E−07
same,Median mutation frequency,[2]; ATCC 90030,9.01E−09
same,Freq. (replicate mutation frequency),[2]; ATCC 90030,4.41E−09 and 2.10E−08 and 9.01E−09
same,Plate concentration,[2]; ATCC 2001,0.125 µg/mL
same,Plate concentration,[2]; ATCC 90030,0.125 µg/mL
same,Median mutation frequency,C. parapsilosis CP02 [3],<1.04E−08
same,Plate concentration,C. parapsilosis CP02 [3]; [14],16 µg/mL
same,Freq. (replicate mutation frequency),C. parapsilosis CP02 [3]; replicate plates 1-3,<1.04E−08 (2×) and <9.62E−09
same,Median mutation frequency,C. krusei ATCC 6258 [4],<3.38E−09
same,Plate concentration,C. krusei ATCC 6258 [4]; [14],0.25 µg/mL
same,Freq. (replicate mutation frequency),C. krusei ATCC 6258 [4]; replicate plates 1-3,<3.38E−09 (2×) and <3.51E−09
same,MIC,"C. albicans NRRL Y-477 [5]; NRRLY477, 48 h, NRRL Y-477 P20-1, selecting drug ANID, Fks1 HS1 S645Y, 48 h read",4 µg/mL
same,MIC,"C. albicans NRRL Y-477 [5]; NRRLY477, 48 h, NRRL Y-477 P20-1, selecting drug CMP1, 48 h read",0.125 µg/mL
same,MIC,"C. albicans NRRL Y-477 [5]; NRRLY477, NRRL Y-477 P20-1, selecting drug CAS",0.015 µg/mL
same,MIC,"C. albicans NRRL Y-477 [5]; NRRLY477, read-out: MIC P20, NRRL Y-477, total population after 20 passages with the selecting drug, MIC of selecting drug",4 µg/mL
same,MIC fold-shift,"C. albicans NRRL Y-477 [5]; NRRL Y-477, WT to P20",256
same,MIC fold-shift,[6]; ATCC 2001,64
same,MIC fold-shift,[6]; ATCC 90030,64
same,MIC,"[6]; 48 h, ATCC 90030 P20-1, selecting drug ANID, Fks2 HS1 D666I, 48 h read",4 µg/mL
same,MIC,"[6]; 48 h, ATCC 90030 P20-1, selecting drug CAS, Fks2 HS1 F659I D666Y, 48 h read",8 µg/mL
same,MIC,"[6]; ATCC 2001 P20-2, selecting drug ANID, Fks1 HS1 D632Y",4 µg/mL
same,MIC,"[6]; ATCC 2001 P20-2, selecting drug CAS",2 µg/mL
same,MIC,"[6]; ATCC 2001 P20-2, selecting drug CMP1",1 µg/mL
same,MIC,"[6]; ATCC 90030 P20-2, selecting drug CMP1",1 µg/mL
same,MIC,"[6]; read-out: MIC P20, ATCC 2001, total population after 20 passages with the selecting drug, MIC of selecting drug",4 µg/mL
same,MIC,"[6]; read-out: MIC P20, ATCC 90030, total population after 20 passages with the selecting drug, MIC of selecting drug",4 µg/mL
same,MIC fold-shift,"C. parapsilosis CP02 [7]; CP02, WT to P20",1
same,MIC,"C. parapsilosis CP02 [7]; CP02, CP02 P20-1, selecting drug ANID",4 µg/mL
same,MIC,"C. parapsilosis CP02 [7]; CP02, CP02 P20-1, selecting drug CAS",4 µg/mL
same,MIC,"C. parapsilosis CP02 [7]; CP02, CP02 P20-1, selecting drug CMP1",8 µg/mL
same,MIC,"C. parapsilosis CP02 [7]; CP02, read-out: MIC P20, CP02, total population after 20 passages with the selecting drug, MIC of selecting drug",4 µg/mL
same,MIC90,"[8]; 24 h, pH 4",0.125 µg/mL
same,MIC90,"[8]; 24 h, pH 7",0.03 µg/mL
same,MIC90,"[8]; 48 h, pH 4",0.25 µg/mL
same,MIC90,"[8]; 48 h, pH 7",0.06 µg/mL
same,MIC90,"[9]; 24 h, pH 4",1 µg/mL
same,MIC90,"[9]; 24 h, pH 7",2 µg/mL
same,MIC90,"[9]; 48 h, pH 4",2 µg/mL
same,MIC90,"[9]; 48 h, pH 7",4 µg/mL
same,MIC90,"[10]; 24 h, pH 4",0.125 µg/mL
same,MIC90,"[10]; 24 h, pH 7",0.03 µg/mL
same,MIC90,"[10]; 48 h, pH 4",0.5 µg/mL
same,MIC90,"[10]; 48 h, pH 7",0.06 µg/mL
same,Cumulative % of isolates inhibited at MIC 0.015 μg/mL,Candida albicans; 251 isolates,(67.7) %
same,Cumulative % of isolates inhibited at MIC 0.03 μg/mL,Candida albicans; 251 isolates,(89.2) %
same,Cumulative % of isolates inhibited at MIC 0.06 μg/mL,Candida albicans; 251 isolates,(98.0) %
same,Cumulative % of isolates inhibited at MIC 0.12 μg/mL,Candida albicans; 251 isolates,(100.0) %
same,Cumulative % of isolates inhibited at MIC ≤0.008 μg/mL,Candida albicans; 251 isolates,(27.5) %
same,Number of isolates inhibited at MIC 0.015 μg/mL,Candida albicans; 251 isolates,101
same,Number of isolates inhibited at MIC 0.03 μg/mL,Candida albicans; 251 isolates,54
same,Number of isolates inhibited at MIC 0.06 μg/mL,Candida albicans; 251 isolates,22
same,Number of isolates inhibited at MIC 0.12 μg/mL,Candida albicans; 251 isolates,5
same,Number of isolates inhibited at MIC ≤0.008 μg/mL,Candida albicans; 251 isolates,69
same,MIC50,Candida albicans; Candida albicans,0.015 µg/mL
same,MIC90,Candida albicans; Candida albicans,0.06 µg/mL
same,Cumulative % of isolates inhibited at MIC 0.5 μg/mL,Candida parapsilosis; 92 isolates,(4.3) %
same,Cumulative % of isolates inhibited at MIC 1 μg/mL,Candida parapsilosis; 92 isolates,(34.8) %
same,Cumulative % of isolates inhibited at MIC 2 μg/mL,Candida parapsilosis; 92 isolates,(82.6) %
same,Cumulative % of isolates inhibited at MIC 4 μg/mL,Candida parapsilosis; 92 isolates,(100.0) %
same,Number of isolates inhibited at MIC 0.5 μg/mL,Candida parapsilosis; 92 isolates,4
same,Number of isolates inhibited at MIC 1 μg/mL,Candida parapsilosis; 92 isolates,28
same,Number of isolates inhibited at MIC 2 μg/mL,Candida parapsilosis; 92 isolates,44
same,Number of isolates inhibited at MIC 4 μg/mL,Candida parapsilosis; 92 isolates,16
same,MIC50,Candida parapsilosis; Lodderomyces parapsilosis,2 µg/mL
same,MIC90,Candida parapsilosis; Lodderomyces parapsilosis,4 µg/mL
same,Cumulative % of isolates inhibited at MIC 0.015 μg/mL,Candida tropicalis; 51 isolates,(62.7) %
same,Cumulative % of isolates inhibited at MIC 0.03 μg/mL,Candida tropicalis; 51 isolates,(98.0) %
same,Cumulative % of isolates inhibited at MIC 0.06 μg/mL,Candida tropicalis; 51 isolates,(100.0) %
same,Cumulative % of isolates inhibited at MIC ≤0.008 μg/mL,Candida tropicalis; 51 isolates,(9.8) %
same,Number of isolates inhibited at MIC 0.015 μg/mL,Candida tropicalis; 51 isolates,27
same,Number of isolates inhibited at MIC 0.03 μg/mL,Candida tropicalis; 51 isolates,18
same,Number of isolates inhibited at MIC 0.06 μg/mL,Candida tropicalis; 51 isolates,1
same,Number of isolates inhibited at MIC ≤0.008 μg/mL,Candida tropicalis; 51 isolates,5
same,MIC50,Candida tropicalis; Candida tropicalis,0.015 µg/mL
same,MIC90,Candida tropicalis; Candida tropicalis,0.03 µg/mL
same,Cumulative % of isolates inhibited at MIC 0.25 μg/mL,Candida orthopsilosis; 10 isolates,(30.0) %
same,Cumulative % of isolates inhibited at MIC 0.5 μg/mL,Candida orthopsilosis; 10 isolates,(50.0) %
same,Cumulative % of isolates inhibited at MIC 1 μg/mL,Candida orthopsilosis; 10 isolates,(90.0) %
same,Cumulative % of isolates inhibited at MIC 2 μg/mL,Candida orthopsilosis; 10 isolates,(100.0) %
same,Number of isolates inhibited at MIC 0.25 μg/mL,Candida orthopsilosis; 10 isolates,3
same,Number of isolates inhibited at MIC 0.5 μg/mL,Candida orthopsilosis; 10 isolates,2
same,Number of isolates inhibited at MIC 1 μg/mL,Candida orthopsilosis; 10 isolates,4
same,Number of isolates inhibited at MIC 2 μg/mL,Candida orthopsilosis; 10 isolates,1
same,MIC50,Candida orthopsilosis; Lodderomyces orthopsilosis,0.5 µg/mL
same,MIC90,Candida orthopsilosis; Lodderomyces orthopsilosis,1 µg/mL
same,Cumulative % of isolates inhibited at MIC >8 μg/mL,[11]; 19 isolates,(100.0) %
same,Number of isolates inhibited at MIC >8 μg/mL,[11]; 19 isolates,19
same,MIC50,[11]; Cryptococcus neoformans,8 µg/mL
same,MIC90,[11]; Cryptococcus neoformans,8 µg/mL
same,Cumulative % of isolates inhibited at MEC 0.015 μg/mL,Aspergillus fumigatus,(91.1) %
same,Cumulative % of isolates inhibited at MEC 0.03 μg/mL,Aspergillus fumigatus,(100.0) %
same,Cumulative % of isolates inhibited at MEC ≤0.008 μg/mL,Aspergillus fumigatus,(53.6) %
same,MEC50,Aspergillus fumigatus,0.008 µg/mL
same,Number of isolates inhibited at MEC 0.015 μg/mL,Aspergillus fumigatus,21
same,Number of isolates inhibited at MEC 0.03 μg/mL,Aspergillus fumigatus,5
same,Number of isolates inhibited at MEC ≤0.008 μg/mL,Aspergillus fumigatus,30
same,MIC,C. albicans NRRL Y-477 [12]; NRRLY477,0.25 µg/mL
same,MIC,"C. albicans NRRL Y-477 [12]; NRRLY477, 24 h, read-out: Broth MIC",0.015 µg/mL
same,MIC,C. krusei ATCC 6258 [13],0.06 µg/mL
